In patent publication US11453683B1, “KRas G12D inhibitors” (Mirati Therapeutics, Inc., priority 2019, dated 2022):

Tested on: KRas G12D-mediated phosphorylation of ERK
Test: Inhibition of KRas G12D-mediated phosphorylation of ERK in AGS cells
Assay type: cell-based
Settings: Homo sapiens; AGS cells expressing G12D, 3 hours, phospho-ERK normalized to GAPDH
Outline: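 Fixed, methanol-permeabilized; phospho-ERK (Thr202/Tyr204) by in-cell immunofluorescence normalized to GAPDH. Percent of DMSO control, IC50 by 4-parameter fit.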

SMILES | IC50
CN1CC(COc2nc(N3C[C@H]4CC[C@@H](C3)N4)c3cnc(-c4cccc5cccc(Cl)c45)c(F)c3n2)CC1=O (stereo partly drawn) [Example 131, 4-(((4-((1R,5S)-3,8-diazabicyclo[3.2.1]octan-3-yl)-7-(8-chloronaphthalen-1-yl)-8-fluoropyrido[4,3-d]pyrimidin-2-yl)oxy)methyl)-1-methylpyrrolidin-2-one] | > 16.7 µM
CN1CCC[C@H]1COc1nc(N2C[C@H]3CC[C@@H](C2)N3)c2cnc(-c3cccc4cccc(Cl)c34)c(F)c2n1 [Example 132, 4-((1R,5S)-3,8-diazabicyclo[3.2.1]octan-3-yl)-7-(8-chloronaphthalen-1-yl)-8-fluoro-2-(((S)-1-methylpyrrolidin-2-yl)methoxy)pyrido[4,3-d]pyrimidine] | 2.56 µM
CC1CCCc2cccc(-c3ncc4c(N5CC6CCC(C5)N6)nc(OC[C@@H]5CCCN5C)nc4c3F)c21 (stereo partly drawn) [Example 133, 4-((1R,5S)-3,8-diazabicyclo[3.2.1]octan-3-yl)-8-fluoro-7-(8-methyl-5,6,7,8-tetrahydronaphthalen-1-yl)-2-(((S)-1-methylpyrrolidin-2-yl)methoxy)pyrido[4,3-d]pyrimidine] | 2.05 µM
Nc1cccc(CCOc2nc(N3C[C@H]4CC[C@@H](C3)N4)c3cnc(-c4cc(O)cc5ccccc45)c(F)c3n2)n1 [Example 139, 4-(2-(2-(6-aminopyridin-2-yl)ethoxy)-4-((1R,5S)-3,8-diazabicyclo[3.2.1]octan-3-yl)-8-fluoropyrido[4,3-d]pyrimidin-7-yl)naphthalen-2-ol] | 5.25 µM
Nc1ccc(CCOc2nc(N3C[C@H]4CC[C@@H](C3)N4)c3cnc(-c4cccc5cccc(Cl)c45)c(F)c3n2)cn1 [Example 141, 5-(2-((4-((1R,5S)-3,8-diazabicyclo[3.2.1]octan-3-yl)-7-(8-chloronaphthalen-1-yl)-8-fluoropyrido[4,3-d]pyrimidin-2-yl)oxy)ethyl)pyridin-2-amine] | > 16.7 µM
O[C@@H]1C[C@@H]2CN(c3nc(N4CCC4)nc4c(F)c(-c5cccc6cccc(Cl)c56)ncc34)C[C@H]1N2 [Example 152, (1R,5R,6R)-3-(2-(azetidin-1-yl)-7-(8-chloronaphthalen-1-yl)-8-fluoropyrido[4,3-d]pyrimidin-4-yl)-3,8-diazabicyclo[3.2.1]octan-6-ol] | > 50 µM
CN1CCC[C@H]1COc1nc(N2CC3CCC(C)(C2)N3)c2cnc(-c3cc(O)cc4ccccc34)c(F)c2n1 (stereo partly drawn) [Example 156, 4-(8-fluoro-4-(1-methyl-3,8-diazabicyclo[3.2.1]octan-3-yl)-2-(((S)-1-methylpyrrolidin-2-yl)methoxy)pyrido[4,3-d]pyrimidin-7-yl)naphthalen-2-ol bis(2,2,2-trifluoroacetate)] | 1.79 µM
CN1CCC[C@H]1COc1nc(N2CC3CCC(CCC#N)(C2)N3)c2cnc(-c3cc(O)cc4ccccc34)c(F)c2n1 (stereo partly drawn) [Example 157, 3-(3-(8-fluoro-7-(3-hydroxynaphthalen-1-yl)-2-(((S)-1-methylpyrrolidin-2-yl)methoxy)pyrido[4,3-d]pyrimidin-4-yl)-3,8-diazabicyclo[3.2.1]octan-1-yl)propanenitrile bis(2,2,2-trifluoroacetate)] | 8 µM
CN1CCC[C@H]1COc1nc(N2CC3CCC(C(N)=O)(C2)N3)c2cnc(-c3cc(O)cc4ccccc34)c(F)c2n1 (stereo partly drawn) [Example 159, 3-(8-fluoro-7-(3-hydroxynaphthalen-1-yl)-2-(((S)-1-methylpyrrolidin-2-yl)methoxy)pyrido[4,3-d]pyrimidin-4-yl)-3,8-diazabicyclo[3.2.1]octane-1-carboxamide bis(2,2,2-trifluoroacetate)] | > 16.7 µM
CN1CCC[C@H]1COc1nc(N2CC3CCC(Cl)(C2)N3)c2cnc(-c3cc(O)cc4ccccc34)c(F)c2n1 (stereo partly drawn) [Example 160, 4-(4-(1-chloro-3,8-diazabicyclo[3.2.1]octan-3-yl)-8-fluoro-2-(((S)-1-methylpyrrolidin-2-yl)methoxy)pyrido[4,3-d]pyrimidin-7-yl)naphthalen-2-ol bis(2,2,2-trifluoroacetate)] | 6.93 µM
CN1CCC[C@H]1COc1nc(N2C[C@H]3CC[C@@H](C2)N3)c2cnc(-c3cccc4c3C(C)(C)CC4)c(F)c2n1 [Example 161, 4-((1R,5S)-3,8-diazabicyclo[3.2.1]octan-3-yl)-7-(3,3-dimethyl-2,3-dihydro-1H-inden-4-yl)-8-fluoro-2-(((S)-1-methylpyrrolidin-2-yl)methoxy)pyrido[4,3-d]pyrimidine bis(2,2,2-trifluoroacetate)] | > 16.7 µM
CN1CCC[C@H]1COc1nc(N2C[C@H]3CC[C@@H](C2)N3)c2cnc(-c3cccc4c3C3(CC4)CC3)c(F)c2n1 [Example 162, 4-((1R,5S)-3,8-diazabicyclo[3.2.1]octan-3-yl)-7-(2′,3′-dihydrospiro[cyclopropane-1,1′-inden]-7′-yl)-8-fluoro-2-(((S)-1-methylpyrrolidin-2-yl)methoxy)pyrido[4,3-d]pyrimidine bis(2,2,2-trifluoroacetate)] | > 16.7 µM
O=C(CCl)N1CCC(Oc2nc(N3C[C@H]4CC[C@@H](C3)N4)c3cnc(-c4cccc5cccc(Cl)c45)c(F)c3n2)CC1 [Example 163, 1-(4-((4-((1R,5S)-3,8-diazabicyclo[3.2.1]octan-3-yl)-7-(8-chloronaphthalen-1-yl)-8-fluoropyrido[4,3-d]pyrimidin-2-yl)oxy)piperidin-1-yl)-2-chloroethan-1-one bis(2,2,2-trifluoroacetate)] | > 16.7 µM
Cc1nccn1CCOc1nc(N2C[C@H]3C[C@@H](O)[C@@H](C2)N3)c2cnc(-c3cccc4cccc(Cl)c34)c(F)c2n1 [Example 167, (1R,5R,6R)-3-(7-(8-chloronaphthalen-1-yl)-8-fluoro-2-(2-(2-methyl-1H-imidazol-1-yl)ethoxy)pyrido[4,3-d]pyrimidin-4-yl)-3,8-diazabicyclo[3.2.1]octan-6-ol] | 16.1 µM
O[C@@H]1C[C@@H]2CN(c3nc(OCCn4ccnc4CF)nc4c(F)c(-c5cccc6cccc(Cl)c56)ncc34)C[C@H]1N2 [Example 168, (1R,5R,6R)-3-(7-(8-chloronaphthalen-1-yl)-8-fluoro-2-(2-(2-(fluoromethyl)-1H-imidazol-1-yl)ethoxy)pyrido[4,3-d]pyrimidin-4-yl)-3,8-diazabicyclo[3.2.1]octan-6-ol] | > 16.7 µM
Cn1ccnc1CCOc1nc(N2C[C@H]3C[C@@H](O)[C@@H](C2)N3)c2cnc(-c3cccc4cccc(Cl)c34)c(F)c2n1 [Example 173, (1R,5R,6R)-3-(7-(8-chloronaphthalen-1-yl)-8-fluoro-2-(2-(1-methyl-1H-imidazol-2-yl)ethoxy)pyrido[4,3-d]pyrimidin-4-yl)-3,8-diazabicyclo[3.2.1]octan-6-ol] | 10.5 µM
CC1CCc2cccc(-c3ncc4c(N5CC6CCC(C5)N6)nc(OC[C@@H]5CCCN5C)nc4c3F)c21 (stereo partly drawn) [Example 174, 4-((1R,5S)-3,8-diazabicyclo[3.2.1]octan-3-yl)-8-fluoro-7-(3-methyl-2,3-dihydro-1H-inden-4-yl)-2-(((S)-1-methylpyrrolidin-2-yl)methoxy)pyrido[4,3-d]pyrimidine] | 12.8 µM
Cc1cc(-c2ncc3c(N4C[C@H]5CC[C@@H](C4)N5)nc(OCC45CCCN4CCC5)nc3c2F)c2c(Cl)cccc2c1 [Example 175, 4-((1R,5S)-3,8-diazabicyclo[3.2.1]octan-3-yl)-7-(8-chloro-3-methylnaphthalen-1-yl)-8-fluoro-2-((hexahydro-1H-pyrrolizin-7a-yl)methoxy)pyrido[4,3-d]pyrimidine] | > 5.56 µM
Nc1nccn1CCOc1nc(N2CC3CCC(C2)N3)c2cnc(-c3cccc4cccc(Cl)c34)c(F)c2n1 [Example 178, 1-[2-[7-(8-chloro-1-naphthyl)-4-(3,8-diazabicyclo[3.2.1]octan-3-yl)-8-fluoro-pyrido[4,3-d]pyrimidin-2-yl]oxyethyl]imidazol-2-amine] | > 16.7 µM
C#Cc1cccc2cccc(-c3ncc4c(N5C[C@H]6CC[C@@H](C5)N6)nc(OCC56CCCN5CCC6)nc4c3F)c12 [Example 179, 4-((1R,5S)-3,8-diazabicyclo[3.2.1]octan-3-yl)-7-(8-ethynylnaphthalen-1-yl)-8-fluoro-2-((hexahydro-1H-pyrrolizin-7a-yl)methoxy)pyrido[4,3-d]pyrimidine] | 0.0712 µM
Fc1c(-c2cccc3cccc(-c4c[nH]nn4)c23)ncc2c(N3C[C@H]4CC[C@@H](C3)N4)nc(OCC34CCCN3CCC4)nc12 [Example 180, 7-(8-(1H-1,2,3-triazol-4-yl)naphthalen-1-yl)-4-((1R,5S)-3,8-diazabicyclo[3.2.1]octan-3-yl)-8-fluoro-2-((hexahydro-1H-pyrrolizin-7a-yl)methoxy)pyrido[4,3-d]pyrimidine] | > 16.7 µM
Oc1cc(-c2ncc3c(N4C[C@H]5CC[C@@H](C4)N5)ncnc3c2F)c2ccccc2c1 [Example 181, 4-(4-((1R,5S)-3,8-diazabicyclo[3.2.1]octan-3-yl)-8-fluoropyrido[4,3-d]pyrimidin-7-yl)naphthalen-2-ol] | 12.8 µM
Nc1nc(N2CC3CCC(C2)N3)c2cnc(-c3cc(O)cc4ccccc34)c(F)c2n1 [Example 182, 4-[2-amino-4-(3,8-diazabicyclo[3.2.1]octan-3-yl)-8-fluoro-pyrido[4,3-d]pyrimidin-7-yl]naphthalen-2-ol] | 13.5 µM
CNc1nc(N2CC3CCC(C2)N3)c2cnc(-c3cc(O)cc4ccccc34)c(F)c2n1 [Example 183, 4-[4-(3,8-diazabicyclo[3.2.1]octan-3-yl)-8-fluoro-2-(methylamino)pyrido[4,3-d]pyrimidin-7-yl]naphthalen-2-ol] | 5.25 µM
C#Cc1cccc2cc(O)cc(-c3ncc4c(N5C[C@H]6CC[C@@H](C5)N6)nc(OCC56CCCN5CCC6)nc4c3F)c12 [Example 185, 4-(4-((1R,5S)-3,8-diazabicyclo[3.2.1]octan-3-yl)-8-fluoro-2-((hexahydro-1H-pyrrolizin-7a-yl)methoxy)pyrido[4,3-d]pyrimidin-7-yl)-5-ethynylnaphthalen-2-ol] | 0.0071 µM
Fc1c(-c2cccc3ccccc23)ncc2c(N3C[C@H]4CC[C@@H](C3)N4)nc(OCC34CCCN3CCC4)nc12 [Example 186, 4-((1R,5S)-3,8-diazabicyclo[3.2.1]octan-3-yl)-8-fluoro-7-(naphthalen-1-yl)-2-((tetrahydro-1H-pyrrolizin-7a(5H)-yl)methoxy)pyrido[4,3-d]pyrimidine] | 3.38 µM
